From ChEMBL document CHEMBL4346715, “Antibacterial activity study of 1,2,4-triazole derivatives” (Eur J Med Chem, 2019)
In brackets after ≈: the same amount, converted by molar mass.

Tests used:
Staphylococcus aureus [1] = experiment: Antibacterial activity against Staphylococcus aureus assessed as zone of inhibition; assay type: functional
Salmonella typhimurium = experiment: Antibacterial activity against Salmonella typhimurium assessed as zone of inhibition; assay type: functional, Salmonella enterica subsp. enterica serovar Typhimurium
Escherichia coli [2] = experiment: Antibacterial activity against Escherichia coli assessed as zone of inhibition; assay type: functional
Bacillus subtilis [3] = experiment: Antibacterial activity against Bacillus subtilis assessed as zone of inhibition; assay type: functional
Staphylococcus aureus [4] = experiment: Antibacterial activity against methicillin-resistant Staphylococcus aureus incubated for 18 hrs post 30 mins pre-diffusion by disk diffusion method; assay type: functional
Bacillus anthracis = experiment: Antibacterial activity against Bacillus anthracis incubated for 18 hrs post 30 mins pre-diffusion by disk diffusion method; assay type: functional
Escherichia coli [5] = experiment: Antibacterial activity against Escherichia coli incubated for 18 hrs post 30 mins pre-diffusion by disk diffusion method; assay type: functional
Bacillus subtilis [6] = experiment: Antibacterial activity against Bacillus subtilis incubated for 18 hrs post 30 mins pre-diffusion by disk diffusion method; assay type: functional
Micrococcus luteus = experiment: Antibacterial activity against Micrococcus luteus incubated for 18 hrs post 30 mins pre-diffusion by disk diffusion method; assay type: functional
Listeria innocua = experiment: Antibacterial activity against Listeria innocua incubated for 18 hrs post 30 mins pre-diffusion by disk diffusion method; assay type: functional
Staphylococcus aureus [7] = experiment: Antibacterial activity against Staphylococcus aureus ATCC 25923 after 24 hrs by microdilution method; assay type: functional; conditions: ATCC 25923, 24 h
Candida albicans [8] = experiment: Antifungal activity against Candida albicans ATCC 50193 after 24 hrs by microdilution method; assay type: functional; conditions: ATCC 50193, 24 h
Escherichia coli [9] = experiment: Antibacterial activity against Escherichia coli ATCC 25922 after 24 hrs by microdilution method; assay type: functional; conditions: ATCC 25922, 24 h
Aspergillus brasiliensis = experiment: Antifungal activity against Aspergillus brasiliensis ATCC 16404 after 24 hrs by microdilution method; assay type: functional; conditions: ATCC 16404, 24 h
Proteus mirabilis = experiment: Antibacterial activity against Proteus mirabilis ATCC 35659 after 24 hrs by microdilution method; assay type: functional; conditions: ATCC 35659, 24 h
Pseudomonas aeruginosa [10] = experiment: Antibacterial activity against Pseudomonas aeruginosa ATCC 27853 after 24 hrs by microdilution method; assay type: functional; conditions: ATCC 27853, 24 h
Bacillus cereus = experiment: Antibacterial activity against Bacillus cereus ATCC 10876 after 24 hrs by microdilution method; assay type: functional; conditions: ATCC 10876, 24 h
Enterococcus faecalis = experiment: Antibacterial activity against Enterococcus faecalis ATCC 29212 after 24 hrs by microdilution method; assay type: functional; conditions: ATCC 29212, 24 h
Listeria monocytogenes = experiment: Antibacterial activity against Listeria monocytogenes ATCC 35152 after 24 hrs by broth microdilution method; assay type: functional; conditions: ATCC 35152, 24 h
Pseudomonas aeruginosa [11] = experiment: Antibacterial activity against Pseudomonas aeruginosa ATCC 27853 after 24 hrs by broth microdilution method; assay type: functional; conditions: ATCC 27853, 24 h
Staphylococcus aureus [12] = experiment: Antibacterial activity against Staphylococcus aureus incubated for 18 hrs post 30 mins pre-diffusion by disk diffusion method; assay type: functional
Staphylococcus aureus [13] = experiment: Antibacterial activity against Staphylococcus aureus; assay type: functional
Candida albicans [14] = experiment: Antifungal activity against Candida albicans; assay type: functional
Aspergillus niger = experiment: Antifungal activity against Aspergillus niger; assay type: functional
Pseudomonas aeruginosa [15] = experiment: Antibacterial activity against Pseudomonas aeruginosa; assay type: functional

## N#Cc1ccc(-c2nc(-c3ccccc3)c(-c3ccccc3)n2-n2c(-c3ccc(Cl)cc3)n[nH]c2=S)cc1
Staphylococcus aureus [1]
  inhibition zone (IZ): 10 - 18 mm
Salmonella typhimurium
  inhibition zone (IZ): 10 - 18 mm
Escherichia coli [2]
  inhibition zone (IZ): 10 - 18 mm
Bacillus subtilis [3]
  inhibition zone (IZ): 10 - 18 mm

## CN[C@H](CC(C)C)C(=O)N[C@H]1C(=O)N[C@@H](CC(N)=O)C(=O)N[C@H]2C(=O)N[C@H]3C(=O)N[C@H](C(=O)N[C@H](C(=O)O)c4cc(O)cc(O)c4-c4cc3ccc4O)[C@H](O)c3ccc(c(Cl)c3)Oc3cc2cc(c3O[C@@H]2O[C@H](CO)[C@@H](O)[C@H](O)[C@H]2O[C@H]2C[C@](C)(N)[C@H](O)[C@H](C)O2)Oc2ccc(cc2Cl)[C@H]1O [VANCOMYCIN]
Staphylococcus aureus [4]
  MIC: 8 µg/mL (≈ 5.52 µM)
Bacillus anthracis
  MIC: 8 µg/mL (≈ 5.52 µM)

## CC(C)N(Cc1ncn(C)n1)Cc1ncn(C)n1
Escherichia coli [5]
  MIC: 7 to 15 µg/mL (≈ 28.1 to 60.2 µM)
Bacillus subtilis [6]
  MIC: 7 to 15 µg/mL (≈ 28.1 to 60.2 µM)
Micrococcus luteus
  MIC: 7 to 15 µg/mL (≈ 28.1 to 60.2 µM)
Listeria innocua
  MIC: 7 to 15 µg/mL (≈ 28.1 to 60.2 µM)

## CCCCCCCCCCCCCCn1nnc(-c2n[nH]c(=S)n2N)c1-c1n[nH]c(=S)n1N
Staphylococcus aureus [7]
  MIC: 1 to 16 µg/mL (≈ 2.03 to 32.4 µM)
Candida albicans [8]
  MIC: 1 to 16 µg/mL (≈ 2.03 to 32.4 µM)
Escherichia coli [9]
  MIC: 1 to 16 µg/mL (≈ 2.03 to 32.4 µM)
Aspergillus brasiliensis
  MIC: 1 to 16 µg/mL (≈ 2.03 to 32.4 µM)
Proteus mirabilis
  MIC: 1 to 16 µg/mL (≈ 2.03 to 32.4 µM)
Pseudomonas aeruginosa [10]
  MIC: 1 to 16 µg/mL (≈ 2.03 to 32.4 µM)
Bacillus cereus
  MIC: 1 to 16 µg/mL (≈ 2.03 to 32.4 µM)
Enterococcus faecalis
  MIC: 1 to 16 µg/mL (≈ 2.03 to 32.4 µM)

## CCCCCCCCCCCCCCCCn1nnc(-c2n[nH]c(=S)n2-c2ccccc2)c1-c1n[nH]c(=S)n1-c1ccccc1
Staphylococcus aureus [7]
  MIC: 1 to 128 µg/mL (≈ 1.55 to 199 µM)
Candida albicans [8]
  MIC: 1 to 128 µg/mL (≈ 1.55 to 199 µM)
Escherichia coli [9]
  MIC: 1 to 128 µg/mL (≈ 1.55 to 199 µM)
Aspergillus brasiliensis
  MIC: 1 to 128 µg/mL (≈ 1.55 to 199 µM)
Proteus mirabilis
  MIC: 1 to 128 µg/mL (≈ 1.55 to 199 µM)
Pseudomonas aeruginosa [10]
  MIC: 1 to 128 µg/mL (≈ 1.55 to 199 µM)
Bacillus cereus
  MIC: 1 to 128 µg/mL (≈ 1.55 to 199 µM)
Enterococcus faecalis
  MIC: 1 to 128 µg/mL (≈ 1.55 to 199 µM)

## O=C(O)c1cn(C2CC2)c2cc(N3CCNCC3)c(F)cc2c1=O [CIPROFLOXACIN]
Staphylococcus aureus [7]
  MIC: 1 to 8 µg/mL (≈ 3.02 to 24.1 µM)
Candida albicans [8]
  MIC: 1 to 8 µg/mL (≈ 3.02 to 24.1 µM)
Listeria monocytogenes
  MIC: 3.9 µg/mL (≈ 11.8 µM)
Escherichia coli [9]
  MIC: 1 to 8 µg/mL (≈ 3.02 to 24.1 µM)
Aspergillus brasiliensis
  MIC: 1 to 8 µg/mL (≈ 3.02 to 24.1 µM)
Proteus mirabilis
  MIC: 1 to 8 µg/mL (≈ 3.02 to 24.1 µM)
Pseudomonas aeruginosa [11]
  MIC: 3.9 µg/mL (≈ 11.8 µM)
Pseudomonas aeruginosa [10]
  MIC: 1 to 8 µg/mL (≈ 3.02 to 24.1 µM)
Bacillus cereus
  MIC: 1 to 8 µg/mL (≈ 3.02 to 24.1 µM)
Enterococcus faecalis
  MIC: 1 to 8 µg/mL (≈ 3.02 to 24.1 µM)

## CCCCCCCCCCn1nnc(-c2n[nH]c(=S)n2-c2ccccc2)c1-c1n[nH]c(=S)n1-c1ccccc1
Staphylococcus aureus [7]
  MIC: 1 to 128 µg/mL (≈ 1.79 to 229 µM)
Candida albicans [8]
  MIC: 1 to 128 µg/mL (≈ 1.79 to 229 µM)
Escherichia coli [9]
  MIC: 1 to 128 µg/mL (≈ 1.79 to 229 µM)
Aspergillus brasiliensis
  MIC: 1 to 128 µg/mL (≈ 1.79 to 229 µM)
Proteus mirabilis
  MIC: 1 to 128 µg/mL (≈ 1.79 to 229 µM)
Pseudomonas aeruginosa [10]
  MIC: 1 to 128 µg/mL (≈ 1.79 to 229 µM)
Bacillus cereus
  MIC: 1 to 128 µg/mL (≈ 1.79 to 229 µM)
Enterococcus faecalis
  MIC: 1 to 128 µg/mL (≈ 1.79 to 229 µM)

## S=c1[nH]nc(-c2ccc(Cl)cc2)n1-n1c(-c2ccc(Br)cc2)nc(-c2ccccc2)c1-c1ccccc1
Staphylococcus aureus [1]
  inhibition zone (IZ): 10 - 18 mm
Salmonella typhimurium
  inhibition zone (IZ): 10 - 18 mm
Escherichia coli [2]
  inhibition zone (IZ): 10 - 18 mm
Bacillus subtilis [3]
  inhibition zone (IZ): 10 - 18 mm

## COC(=O)c1ncn(CN(Cn2cnc(C(=O)OC)n2)C(C)C)n1
Escherichia coli [5]
  MIC: 7 to 15 µg/mL (≈ 20.8 to 44.5 µM)
Bacillus subtilis [6]
  MIC: 7 to 15 µg/mL (≈ 20.8 to 44.5 µM)
Micrococcus luteus
  MIC: 7 to 15 µg/mL (≈ 20.8 to 44.5 µM)
Listeria innocua
  MIC: 7 to 15 µg/mL (≈ 20.8 to 44.5 µM)

## FC(F)(F)c1cc(-c2nnc(Sc3cc(Cl)nc(Sc4ccccc4)n3)[nH]2)cc(C(F)(F)F)c1
Escherichia coli [5]
  MIC: 1.8 µg/mL (≈ 3.37 µM)
Staphylococcus aureus [12]
  MIC: 3.1 µg/mL (≈ 5.81 µM)
Staphylococcus aureus [4]
  MIC: 0.75 to 1.8 µg/mL (≈ 1.4 to 3.37 µM)
Bacillus anthracis
  MIC: 0.75 to 1.8 µg/mL (≈ 1.4 to 3.37 µM)

## CO[C@H]1/C=C/O[C@@]2(C)Oc3c(C)c(O)c4c(O)c(c(/C=N/N5CCN(C)CC5)c(O)c4c3C2=O)NC(=O)/C(C)=C\C=C\[C@H](C)[C@H](O)[C@@H](C)[C@@H](O)[C@@H](C)[C@H](OC(C)=O)[C@@H]1C [RIFAMPIN]
Staphylococcus aureus [4]
  MIC: 31 to 1000 µg/mL (≈ 37.7 to 1220 µM)
Bacillus anthracis
  MIC: 31 to 1000 µg/mL (≈ 37.7 to 1220 µM)

## COC(=O)c1ncn(CNCn2cnc(C(=O)OC)n2)n1
Escherichia coli [5]
  MIC: 7 to 15 µg/mL (≈ 23.7 to 50.8 µM)
Bacillus subtilis [6]
  MIC: 7 to 15 µg/mL (≈ 23.7 to 50.8 µM)
Micrococcus luteus
  MIC: 7 to 15 µg/mL (≈ 23.7 to 50.8 µM)
Listeria innocua
  MIC: 7 to 15 µg/mL (≈ 23.7 to 50.8 µM)

## Cn1cnc(CNCc2ncn(C)n2)n1
Escherichia coli [5]
  MIC: 7 to 15 µg/mL (≈ 33.8 to 72.4 µM)
Bacillus subtilis [6]
  MIC: 7 to 15 µg/mL (≈ 33.8 to 72.4 µM)
Micrococcus luteus
  MIC: 7 to 15 µg/mL (≈ 33.8 to 72.4 µM)
Listeria innocua
  MIC: 7 to 15 µg/mL (≈ 33.8 to 72.4 µM)

## CCn1cc(C(=O)O)c(=O)c2cc(F)c(N3CCNCC3)cc21 [NORFLOXACIN]
Staphylococcus aureus [13]
  MIC: 14.1 µg/mL (≈ 44.2 µM)
Candida albicans [14]
  MIC: 7.8 µg/mL (≈ 24.4 µM)
Aspergillus niger
  MIC: 10.2 µg/mL (≈ 31.9 µM)
Pseudomonas aeruginosa [15]
  MIC: 11.7 µg/mL (≈ 36.6 µM)
Staphylococcus aureus [4]
  MIC: 31 to 1000 µg/mL (≈ 97.1 to 3130 µM)
Bacillus anthracis
  MIC: 31 to 1000 µg/mL (≈ 97.1 to 3130 µM)

## COC(=O)c1ncn(CN(CCCO)Cn2cnc(C(=O)OC)n2)n1
Escherichia coli [5]
  MIC: 7 to 15 µg/mL (≈ 19.8 to 42.5 µM)
Bacillus subtilis [6]
  MIC: 7 to 15 µg/mL (≈ 19.8 to 42.5 µM)
Micrococcus luteus
  MIC: 7 to 15 µg/mL (≈ 19.8 to 42.5 µM)
Listeria innocua
  MIC: 7 to 15 µg/mL (≈ 19.8 to 42.5 µM)
